Test results: patent publication US20260373248A1, “DEGRADABLE PEPTOIDS” (Medici Therapeutics, Inc., priority 2023, published 2026)
Non-standard residues stand in square brackets, D forms with d. Residues, ends and D or L forms follow the SMILES beside them. *: point of attachment. N(3-lauroyloxypropyl)Gly = CCCCCCCCCCCC(=O)OCCCNCC(=O)O; N(2-decanoyloxyethyl)Gly = CCCCCCCCCC(=O)OCCNCC(=O)O; N(3-imidazol-1-ylpropyl)Gly = O=C(O)CNCCCn1ccnc1; Gly(N-3-morpholinopropyl) = O=C(O)CNCCCN1CCOCC1; N(2-ethylhexyl)Gly = CCCCC(CC)CNCC(=O)O; N(octyl)Gly = CCCCCCCCNCC(=O)O; NHexGly = CCCCCCNCC(=O)O; For = O=C*

What was measured:
[1] = Delivery vehicle size and polydispersity by dynamic light scattering; assay type: physicochemical
Outline: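 Dynamic light scattering in PBS gave size and polydispersity of peptoid LNPs. These were dialyzed overnight at 4 °C into tris-sucrose buffer pH 7.4 after microfluidic 1:3 volume mixing of mRNA in pH 5.0 citrate with ethanol lipids (peptoid:DSPC:cholesterol:DMG-PEG2000 20:1.79:7.16:1.84 w/w).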

[2] = test system: mRNA; assay: mRNA encapsulation (modified Quant-iT RiboGreen assay); assay type: physicochemical; conditions: for mean percent encapsulation of RNA: RiboGreen, without vs with Triton X-100; for % Encapsulation: mRNA
Outline: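 Encapsulated fraction was calculated by comparing RiboGreen signal (excitation 485 nm, emission 530 nm) of intact particles with that of particles lysed by a 10-min Triton X-100 treatment. Total mRNA concentration was taken from the lysed samples.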

[3] = test system: firefly luciferase; assay: In vivo firefly luciferase expression after intravenous injection of fLuc mRNA delivery vehicles (IVIS imaging); parameters: species or system female Balb/c mice; conditions: for Total Flux: mice, 2.5 ug fLuc mRNA intravenously, 6 hours post-injection; for Total Flux (luciferase expression): fLuc mRNA, intravenous, Balb/c mice
Outline: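 Read-out is total photon flux per region of interest, from whole-body IVIS images taken 10 minutes after IP D-luciferin (30 mg/mL, 10 μL/g) and from excised organs. Female Balb/c mice aged 6-8 weeks received 2.5 ug fLuc mRNA Nutshells intravenously 6 hours before imaging.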

[4] = test system: hEPO; assay: Quantification of hEPO in serum after IV injection of mRNA (Human EPO ELISA); assay type: in vivo; conditions: Balb/c mice, 2.5 μg mRNA IV, serum after 6 hours
Outline: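 Balb/c mice received 2.5 μg mRNA encoding human EPO by IV injection; serum was collected after 6 hours. hEPO was measured by sandwich ELISA (biotin-conjugate, streptavidin-HRP, TMB, A450) against kit standards (mIU/mL) and an external standard (ng/mL), with values interpolated and corrected for dilution.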

[5] = Peptoid quantity remaining in liver by HPLC-TOF mass spectrometry; assay type: in vivo; conditions: liver homogenate
Outline: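 Whole liver weighed; 20 mg tissue bead-homogenized in IPA/MeOH (8/2) with internal standard, centrifuged, supernatant run on BEH C8 HPLC-TOF MS. Peptoid concentration derived from linear calibration curve (0.2-50 μg/g) prepared in spiked untreated liver.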

[6] = test system: luciferase; assay: Luciferase expression after local (intramuscular or subcutaneous) administration of mRNA; assay type: in vivo; conditions: mRNA 0.01 mpk, 6 hours; for IM Flux: intramuscular; for SC Flux: subcutaneous
Outline: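 Bioluminescence read 6 hours after fLuc mRNA dosing (peptoid Nutshells; 0.01 mpk S.C. or I.M., 0.1 mpk intratumoral) in female Balb/c mice aged 6-8 weeks. D-luciferin injected IP, whole-body imaging after 10 minutes, then organ imaging; total photon flux per region of interest.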

[7] = DLS in PBS, peptoid:DSPC:Cholesterol:DMG-PEG2000 weight ratio 20:1.79:7.16:1.84, mRNA

Structure (SMILES) | PDI [1, 7] | Particle Size [1, 7] [nm] | mean percent encapsulation of RNA [2] [%] | % of injected dose remaining in liver [5] | Particle Size ([1]; formulation recipe D22) [nm] | % Encapsulation ([2]; formulation recipe D22) [%] | Total Flux [3] [p/s] | hEPO [4] [ng/mL] | IM Flux [6] [p/s] | SC Flux [6] [p/s] | Total Flux (luciferase expression) ([3]; formulation recipe D22) [p/s] | further results
CCCCCCCCCCCC(=O)OCCCN(CC(=O)N(CC(N)=O)CC(CC)CCCC)C(=O)CN(CCCCCCCC)C(=O)CN(CC(CC)CCCC)C(=O)CN(CCCOC(=O)CCCCCCCCCCC)C(=O)CN(CCCCCCCC)C(=O)CN(C=O)CCCN1CCOCC1 (centres unmarked) [Compound 74] (For-[Gly(N-3-morpholinopropyl)][N(octyl)Gly][N(3-lauroyloxypropyl)Gly][N(2-ethylhexyl)Gly][N(octyl)Gly][N(3-lauroyloxypropyl)Gly][N(2-ethylhexyl)Gly]-NH2) | 0.151 | 87.1 | 67.6 | bdl | 87.1 | 67.6 | 1.96E+09 | 354 | 4.87E+07 | 2.11E+08 | 1.96E+09 | Particle Size ([1]; formulation recipe O5): 70.1 nm; Particle Size ([1]; formulation recipe O8): 71.7 nm; % Encapsulation ([2]; formulation recipe O5): 90.4%; % Encapsulation ([2]; formulation recipe O8): 91.5%; Total Flux (luciferase expression) ([3]; formulation recipe O5): 1.92E+09 p/s; Total Flux (luciferase expression) ([3]; formulation recipe O8): 3.39E+09 p/s
CCCCCCCCCC(=O)OCCN(CC(=O)N(CCOC(=O)CCCCCCCCC)CC(=O)N(CC(=O)N(CCOC(=O)CCCCCCCCC)CC(=O)N(CCOC(=O)CCCCCCCCC)CC(=O)N(CC(N)=O)CC(CC)CCCC)CC(CC)CCCC)C(=O)CN(C=O)CCCN1CCOCC1 (centres unmarked) [Compound 76] (For-[Gly(N-3-morpholinopropyl)][N(2-decanoyloxyethyl)Gly][N(2-decanoyloxyethyl)Gly][N(2-ethylhexyl)Gly][N(2-decanoyloxyethyl)Gly][N(2-decanoyloxyethyl)Gly][N(2-ethylhexyl)Gly]-NH2) | 0.095 | 75.4 | 56.4 | 7.34% | 75.4 | 56.4 | 5.54E+09 | 2140 | 1.70E+08 | 8.95E+07 | 5.54E+09 | Particle Size ([1]; formulation recipe R1): 66.0 nm; Particle Size ([1]; formulation recipe R5): 67.2 nm; Particle Size ([1]; formulation recipe R6): 74.4 nm; Particle Size ([1]; formulation recipe R7): 75.3 nm; % Encapsulation ([2]; formulation recipe R1): 82.7%; % Encapsulation ([2]; formulation recipe R5): 88.1%; % Encapsulation ([2]; formulation recipe R6): 87.6%; % Encapsulation ([2]; formulation recipe R7): 79.9%; Total Flux (luciferase expression) ([3]; formulation recipe R1): 5.94E+08 p/s; Total Flux (luciferase expression) ([3]; formulation recipe R5): 1.00E+09 p/s; Total Flux (luciferase expression) ([3]; formulation recipe R6): 2.28E+09 p/s; Total Flux (luciferase expression) ([3]; formulation recipe R7): 4.00E+09 p/s
CCCCCCCCCC(=O)OCCN(CC(=O)N(CCOC(=O)CCCCCCCCC)CC(=O)N(CC(=O)N(CCOC(=O)CCCCCCCCC)CC(=O)N(CCOC(=O)CCCCCCCCC)CC(=O)N(CC(N)=O)CC(CC)CCCC)CC(CC)CCCC)C(=O)CNCCCn1ccnc1 (centres unmarked) [Compound 79] (H-[N(3-imidazol-1-ylpropyl)Gly][N(2-decanoyloxyethyl)Gly][N(2-decanoyloxyethyl)Gly][N(2-ethylhexyl)Gly][N(2-decanoyloxyethyl)Gly][N(2-decanoyloxyethyl)Gly][N(2-ethylhexyl)Gly]-NH2) | 0.108 | 61.0 | 97.5 | 19.72% | – | – | 1.60E+09 | 320 | 1.31E+08 | 1.59E+08 | – | –
CCCCCCCCCCCC(=O)OCCCN(CC(=O)N(CC(=O)N(CCCN1CCOCC1)CC(=O)N(CC(=O)N(CCCOC(=O)CCCCCCCCCCC)CC(=O)N(CC(N)=O)CC(CC)CCCC)CC(CC)CCCC)CC(CC)CCCC)C(=O)CN(C=O)CC(CC)CCCC (centres unmarked) [Compound 80] (For-[N(2-ethylhexyl)Gly][N(3-lauroyloxypropyl)Gly][N(2-ethylhexyl)Gly][Gly(N-3-morpholinopropyl)][N(2-ethylhexyl)Gly][N(3-lauroyloxypropyl)Gly][N(2-ethylhexyl)Gly]-NH2) | 0.109 | 78.1 | 65.7 | 13.58% | 78.1 | 65.7 | 3.74E+09 | 481 | 2.20E+08 | 4.16E+08 | 3.74E+09 | Particle Size ([1]; formulation recipe O1): 68.2 nm; Particle Size ([1]; formulation recipe O5): 68.5 nm; % Encapsulation ([2]; formulation recipe O1): 80.5%; % Encapsulation ([2]; formulation recipe O5): 82.6%; Total Flux (luciferase expression) ([3]; formulation recipe O1): 2.74E+09 p/s; Total Flux (luciferase expression) ([3]; formulation recipe O5): 2.71E+09 p/s

Second part, led by results:

PDI [1, 7] | Particle Size [1, 7] [nm] | mean percent encapsulation of RNA [2] [%] | % of injected dose remaining in liver [5] | Particle Size ([1]; formulation recipe D22) [nm] | % Encapsulation ([2]; formulation recipe D22) [%] | Structure (SMILES) | Total Flux [3] [p/s] | hEPO [4] [ng/mL] | IM Flux [6] [p/s] | SC Flux [6] [p/s] | Total Flux (luciferase expression) ([3]; formulation recipe D22) [p/s] | further results
0.082 | 101.3 | 77.2 | 8.06% | – | – | CCCCCCCCCCCC(=O)OCCCN(CC(=O)N(CC(=O)N(CCCCCC)CC(=O)N(CCCOC(=O)CCCCCCCCCCC)CC(=O)N(CC(=O)N(CCCCCC)CC(N)=O)CC(CC)CCCC)CC(CC)CCCC)C(=O)CN(C=O)CCCN1CCOCC1 (centres unmarked) [Compound 70] (For-[Gly(N-3-morpholinopropyl)][N(3-lauroyloxypropyl)Gly][N(2-ethylhexyl)Gly][NHexGly][N(3-lauroyloxypropyl)Gly][N(2-ethylhexyl)Gly][NHexGly]-NH2) | 1.04E+09 | 201 | 4.46E+06 | 2.02E+08 | – | –
0.139 | 106.8 | 89.2 | 11.32% | – | – | CCCCCCCCCCCC(=O)OCCCN(CC(=O)N(CC(=O)N(CCCCCC)CC(=O)N(CCCOC(=O)CCCCCCCCCCC)CC(=O)N(CC(=O)N(CCCCCC)CC(N)=O)CC(CC)CCCC)CC(CC)CCCC)C(=O)CNCCCn1ccnc1 (centres unmarked) [Compound 72] (H-[N(3-imidazol-1-ylpropyl)Gly][N(3-lauroyloxypropyl)Gly][N(2-ethylhexyl)Gly][NHexGly][N(3-lauroyloxypropyl)Gly][N(2-ethylhexyl)Gly][NHexGly]-NH2) | 1.71E+08 | 36 | 9.25E+06 | 3.73E+07 | – | –
0.163 | 81.5 | 70.7 | 15.77% | 81.5 | 70.7 | CCCCCCCCCCCC(=O)OCCCN(CC(=O)N(CC(=O)N(CCCn1ccnc1)CC(=O)N(CC(=O)N(CCCOC(=O)CCCCCCCCCCC)CC(=O)N(CC(N)=O)CC(CC)CCCC)CC(CC)CCCC)CC(CC)CCCC)C(=O)CN(C=O)CC(CC)CCCC (centres unmarked) [Compound 82] (For-[N(2-ethylhexyl)Gly][N(3-lauroyloxypropyl)Gly][N(2-ethylhexyl)Gly][N(3-imidazol-1-ylpropyl)Gly][N(2-ethylhexyl)Gly][N(3-lauroyloxypropyl)Gly][N(2-ethylhexyl)Gly]-NH2) | 2.62E+09 | 600 | 1.24E+08 | 1.41E+08 | 2.62E+09 | Particle Size ([1]; formulation recipe F2): 65.9 nm; Particle Size ([1]; formulation recipe X29): 72.1 nm; Particle Size ([1]; formulation recipe X145): 80.7 nm; % Encapsulation ([2]; formulation recipe F2): 75.3%; % Encapsulation ([2]; formulation recipe X29): 62.0%; % Encapsulation ([2]; formulation recipe X145): 70.9%; Total Flux (luciferase expression) ([3]; formulation recipe F2): 4.10E+08 p/s; Total Flux (luciferase expression) ([3]; formulation recipe X29): 2.83E+09 p/s; Total Flux (luciferase expression) ([3]; formulation recipe X145): 5.70E+09 p/s
